Experimental findings from patent publication US20200316096A1, “COMBINATION OF DIET AND DRUG THERAPY FOR TREATING CANCER” (Trustees of Boston College, priority 2019, published 2020) are described below.

For this experiment, the system named is VM-M3 tumour. The experiment is described as follows: VM-M3 orthotopic GBM model: bioluminescence imaging and survival. The experiment is classed as in vivo, mouse (VM/Dk). The protocol: FIGS. 1A-1F. Restricted Ketogenic diet with DON reduces progression and mortality of the VM-M3 GBM. VM/Dk inbred mice were implanted orthotopically with a small (1.0 mm×1.0 mm) tissue fragment from the VM-M3 tumour on day 0. The implanted mice were divided into two groups on day 4 and were fed either; a standard chow diet unrestricted or ad-libitum (SD-UR), or a ketogenic diet (KD-R) in restricted amounts to reduce body weight by about 15%. DON (0.1-1.0 mg/kg) was injected i.p. 7 days following orthotopic tumour implantation. […] 1A. All mice were imaged in-vivo and terminated on day 14 or 15 when all control mice appeared moribund (experiments 1 & 2). For experiment 1, bioluminescence was scored from 0-4, following the administration of lower doses of DON (0.1 and 0.5 mg/kg). Values are expressed as the mean+/−SEM and a one-way analysis of variance followed by Tukey's post hoc test was performed to determine the significance between groups, FIG. 1B. In experiment 2, in-vivo bioluminescent photon values were obtained following the administration of DON (1.0 mg/kg) in mice under the KD-R, FIG. 1C. The average in-vivo bioluminescent photon values were calculated for the KD-R (n=4) and KD-R+DON (n=8) mice in experiment 2. Values are presented as the mean+/−SEM and the P value was calculated using a two-tailed student's t-test, FIG. 1D. in-vivo bioluminescent images of 3 representative mice from both study groups in experiment 2 are shown, FIG. 1E. For experiment 3, a survival study was performed, and a Kaplan Meier survival plot was configured for SD-UR (n=15), SD-UR+DON (n=10), KD-R (n=10), and KD-R+DON (n=10), FIG. 1F.
FIGS. 2A-2C. Restricted Ketogenic diet with DON reduces VM-M3 GBM bioluminescence. VM/Dk mice were implanted with a VM-M3 tumour as described in the previous figures. Mouse brains were imaged ex-vivo on day 14 or 15. Mice were imaged ex-vivo after in-vivo bioluminescent imaging, as described in the previous figures. Individual ex-vivo bioluminescent photon values were measured following the administration of DON (1.0 mg/kg) in KD-R mice, FIG. 2A. From the individual measurements, the average ex-vivo bioluminescent photon value was calculated for both the KD-R (n=6) and KD-R+DON (n=8) mouse groups. Values are presented as the mean+/−SEM and significance of differences was determined following a two-tailed student's t-test, FIG. 2B. ex-vivo bioluminescent images of brains from representative mice in experiment 2 are shown in comparison to SD-UR, FIG. 2C.
To observe the effect of the KD-R and DON on the VM-M3 tumour model, three consecutive experiments were conducted. Experiment 1 included four groups (SD-UR; SD-UR+DON; KDR; KDR+DON) with lower DON dosages (0.1 and 0.5 mg/kg). Experiment 2 involved both in-vivo and ex-vivo imaging of two study groups (KD-R and KD-R+DON) following the administration of a higher dose of DON (1.0 mg/kg). Experiment 3, a survival study, also used the higher DON dose (1.0 mg/kg) and included the four groups from Experiment 1 (SD-UR; SD-UR+DON; KDR; KDR+DON) ( ).
The KD-R+DON treatment was performed as outlined in the study timeline (FIG. 1A). In experiment 1, two doses of DON (0.1 and 0.5 mg/kg) were used in both the SD-UR and KD-R groups (FIG. 1B). d-luciferin was injected i.p. 15 days after tumour implantation, and in-vivo bioluminescence imaging was performed. The total VM-M3 tumour bioluminescence photon values were scored from 0 to 4, with 0 being the baseline value and 4 being the highest value.
Experiment 2 involved a larger number of mice that were treated with a higher dose of DON (1.0 mg/kg). Due to the observed synergy between the KD-R and DON in experiment 1, only the KD-R group was selected for further experiments. All mice in this experiment expressed a significant amount of tumour burden as observed by in-vivo imaging on day 7 (data not shown). […] All untreated SD-UR control mice died between day 15 and 18. […]

Consider `[N-]=[N+]=CC(=O)CC[C@H](N)C(=O)O` [DON, 6-diazo-5-oxo-L-norleucine], for which, under “DON 0.5 mg/kg once or twice per week, bioluminescent imaging”, the “reduction in tumour growth” value is recorded as 60 to 70%. In addition, the “resolution of the brain tumour” value (DON 1.0 mg/kg, same schedule, bioluminescent imaging) is on record as “near complete resolution”. Moreover, the “lower photon value compared to control SD-UR group” value (experiment 1, DON 0.1 and 0.5 mg/kg, in-vivo bioluminescence day 15) came out at 44%. Further, the “average ex-vivo photon value” (experiment 2, DON 1.0 mg/kg, FIG. 2B) was “significant reduction”. Besides, the “mice with baseline value of in-vivo bioluminescence” value (experiment 2, KD-R fed mice, DON 1.0 mg/kg, day 14 or 15) is 7 out of the 8. Moreover, where the note is “experiment 2, KD-R fed mice, DON 1.0 mg/kg, resected brains”, the “individual ex-vivo bioluminescent values” was “below the baseline value”. Under “experiment 2, KD-R fed mice, DON 1.0 mg/kg, versus KD-R”, the “average in-vivo photon value” was “significant reduction”.
